# Reference: patent publication US20250360235A1, “RADI[…] AND METHOD FOR RADIOLABELLING” (Telix Innovations SA, priority 2024, published 2025)
# Experiment: Radiochemical purity by iTLC over time after radiolabelling
# Type: physicochemical
# Description: Table 1 to Table 5 show the results of various radiolabelling experiments on radiochemical purity and the chelation yield. The radiolabelling experiments in the tables are carried out as described in: • Example 1 for when the gallium-68 source is GE Liquid target generator and EZAG GalliaPharm generator; • Example 2 for when the gallium-68 source is IRE Galli Eo generator; • Example 3 for when the gallium-68 source is GE solid target generator;
# However, the experiments were carried out with the amount of ascorbic acid as indicated in the Tables 1 to 5, and the activity as indicated in the Tables 1 to 5. Radiochemical purities were measured at various times (T0, T1, T4, T6) after the radiolabelled experiments have been conducted.
# The kits of Example 1, Example 2 or Example 3, with amounts of ascorbic acid as set out in Table 7 were used in the experiments for the ascorbic acid bracketing matrix. Three strengths of [^68Ga]Ga-PSMA-11 will be tested, i.e. 50 mCi/ml, 7 mCi/ml and 1 mCi/ml. Radiochemical purity was determined at different time points (TO, T1, T4 or T6), as set out in Table 7.
# [1] = validation batches, 25 mg ascorbic acid, 51.6-62.7 mCi, 4.56-5.88 mCi/mL, IRE Galli Eo, average of 3, T0
# [2] = validation batches, 25 mg ascorbic acid, 51.6-62.7 mCi, 4.56-5.88 mCi/mL, IRE Galli Eo, average of 3, T4 (4 h)
# [3] = validation batches, 25 mg ascorbic acid, 51.6-62.7 mCi, 4.56-5.88 mCi/mL, IRE Galli Eo, n=3, T0
# [4] = validation batches, 25 mg ascorbic acid, 51.6-62.7 mCi, 4.56-5.88 mCi/mL, IRE Galli Eo, n=3, T4 (4 h)
# [5] = validation batches, 25 mg ascorbic acid, 53.3-74.4 mCi, 5.03-6.92 mCi/mL, GE Liquid target, average of 3, T0
# [6] = validation batches, 25 mg ascorbic acid, 53.3-74.4 mCi, 5.03-6.92 mCi/mL, GE Liquid target, average of 3, T4 (4 h)
# [7] = validation batches, 25 mg ascorbic acid, 53.3-74.4 mCi, 5.03-6.92 mCi/mL, GE Liquid target, n=3, T0
# [8] = validation batches, 25 mg ascorbic acid, 53.3-74.4 mCi, 5.03-6.92 mCi/mL, GE Liquid target, n=3, T4 (4 h)
# [9] = validation batches, 25 mg ascorbic acid, 65.0-66.4 mCi, 5.74-6.15 mCi/mL, EZAG GalliaPharm, average of 3, T0
# [10] = validation batches, 25 mg ascorbic acid, 65.0-66.4 mCi, 5.74-6.15 mCi/mL, EZAG GalliaPharm, average of 3, T4 (4 h)
# [11] = validation batches, 25 mg ascorbic acid, 65.0-66.4 mCi, 5.74-6.15 mCi/mL, EZAG GalliaPharm, n=3, T0
# [12] = validation batches, 25 mg ascorbic acid, 65.0-66.4 mCi, 5.74-6.15 mCi/mL, EZAG GalliaPharm, n=3, T4 (4 h)
# [13] = validation batches, 25 mg ascorbic acid, 537-551 mCi, 50.2-51.6 mCi/mL, GE Solid Target, average of 3, T0
# [14] = validation batches, 25 mg ascorbic acid, 537-551 mCi, 50.2-51.6 mCi/mL, GE Solid Target, average of 3, T6 (6 h)
# [15] = validation batches, 25 mg ascorbic acid, 537-551 mCi, 50.2-51.6 mCi/mL, GE Solid Target, n=3, T0
# [16] = validation batches, 25 mg ascorbic acid, 537-551 mCi, 50.2-51.6 mCi/mL, GE Solid Target, n=3, T6 (6 h)
# [17] = validation batches, 25 mg ascorbic acid, 555-564 mCi, 51.1-52.7 mCi/mL, ARTMS Solid Target, average of 3, T0
# [18] = validation batches, 25 mg ascorbic acid, 555-564 mCi, 51.1-52.7 mCi/mL, ARTMS Solid Target, average of 3, T6 (6 h)
# [19] = validation batches, 25 mg ascorbic acid, 555-564 mCi, 51.1-52.7 mCi/mL, ARTMS Solid Target, n=3, T0
# [20] = validation batches, 25 mg ascorbic acid, 555-564 mCi, 51.1-52.7 mCi/mL, ARTMS Solid Target, n=3, T6 (6 h)
smiles,measurement,setting,value
"O=C([O-])CN(CCN(CC(=O)[O-])Cc1cc(CCC(=O)NCCCCCC(=O)NCCCC[C@H](NC(=O)N[C@@H](CCC(=O)O)C(=O)O)C(=O)O)ccc1[O-])Cc1cc(CCC(=O)O)ccc1[O-].[68Ga+3].[OH3+] [[^68Ga]PSMA-11, gallium-68 radiolabelled Glu-urea-Lys-HBED-CC (gozetotide or PSMA-11)]",Radiochemical Purity (iTLC) Ga-68 PSMA-11 (%),"bracketing ~50 mCi/mL, 31.25 mg ascorbic acid, 500-544 mCi, 48.1-51.7 mCi/mL, GE Solid Target, average of 2, T6 (6 h)",99%
same,Radiochemical Purity (iTLC) Free and Colloidal Ga-68 (%),[1],0%
same,Radiochemical Purity (iTLC) Ga-68 PSMA-11 (%),[1],100%
same,Radiochemical Purity (iTLC) Free and Colloidal Ga-68 (%),[2],1%
same,Radiochemical Purity (iTLC) Ga-68 PSMA-11 (%),[2],99%
same,Radiochemical Purity (iTLC) Free and Colloidal Ga-68 (%),[3],C (C = all results conform to specifications)
same,Radiochemical Purity (iTLC) Ga-68 PSMA-11 (%),[3],C (C = all results conform to specifications)
same,Radiochemical Purity (iTLC) Free and Colloidal Ga-68 (%),[4],C (C = all results conform to specifications)
same,Radiochemical Purity (iTLC) Ga-68 PSMA-11 (%),[4],C (C = all results conform to specifications)
same,Radiochemical Purity (iTLC) Free and Colloidal Ga-68 (%),[5],1%
same,Radiochemical Purity (iTLC) Ga-68 PSMA-11 (%),[5],99%
same,Radiochemical Purity (iTLC) Free and Colloidal Ga-68 (%),[6],0%
same,Radiochemical Purity (iTLC) Ga-68 PSMA-11 (%),[6],100%
same,Radiochemical Purity (iTLC) Free and Colloidal Ga-68 (%),[7],C (C = all results conform to specifications)
same,Radiochemical Purity (iTLC) Ga-68 PSMA-11 (%),[7],C (C = all results conform to specifications)
same,Radiochemical Purity (iTLC) Free and Colloidal Ga-68 (%),[8],C (C = all results conform to specifications)
same,Radiochemical Purity (iTLC) Ga-68 PSMA-11 (%),[8],C (C = all results conform to specifications)
same,Radiochemical Purity (iTLC) Free and Colloidal Ga-68 (%),[9],0%
same,Radiochemical Purity (iTLC) Ga-68 PSMA-11 (%),[9],100%
same,Radiochemical Purity (iTLC) Free and Colloidal Ga-68 (%),[10],2%
same,Radiochemical Purity (iTLC) Ga-68 PSMA-11 (%),[10],98%
same,Radiochemical Purity (iTLC) Free and Colloidal Ga-68 (%),[11],C (C = all results conform to specifications)
same,Radiochemical Purity (iTLC) Ga-68 PSMA-11 (%),[11],C (C = all results conform to specifications)
same,Radiochemical Purity (iTLC) Free and Colloidal Ga-68 (%),[12],C (C = all results conform to specifications)
same,Radiochemical Purity (iTLC) Ga-68 PSMA-11 (%),[12],C (C = all results conform to specifications)
same,Radiochemical Purity (iTLC) Free and Colloidal Ga-68,[13],0%
same,Radiochemical Purity (iTLC) Ga-68 PSMA-11,[13],100%
same,Radiochemical Purity (iTLC) Free and Colloidal Ga-68,[14],1%
same,Radiochemical Purity (iTLC) Ga-68 PSMA-11,[14],99%
same,Radiochemical Purity (iTLC) Free and Colloidal Ga-68,[15],C (C = all results conform to specifications)
same,Radiochemical Purity (iTLC) Ga-68 PSMA-11,[15],C (C = all results conform to specifications)
same,Radiochemical Purity (iTLC) Free and Colloidal Ga-68,[16],C (C = all results conform to specifications)
same,Radiochemical Purity (iTLC) Ga-68 PSMA-11,[16],C (C = all results conform to specifications)
same,Radiochemical Purity (iTLC) Free and Colloidal Ga-68,[17],1%
same,Radiochemical Purity (iTLC) Ga-68 PSMA-11,[17],99%
same,Radiochemical Purity (iTLC) Free and Colloidal Ga-68,[18],0%
same,Radiochemical Purity (iTLC) Ga-68 PSMA-11,[18],100%
same,Radiochemical Purity (iTLC) Free and Colloidal Ga-68,[19],C (C = all results conform to specifications)
same,Radiochemical Purity (iTLC) Ga-68 PSMA-11,[19],C (C = all results conform to specifications)
same,Radiochemical Purity (iTLC) Free and Colloidal Ga-68,[20],C (C = all results conform to specifications)
same,Radiochemical Purity (iTLC) Ga-68 PSMA-11,[20],C (C = all results conform to specifications)
